Assay results published in patent publication US9834514B2, “Antibiotic sensitivity-restoring and photosensitive agents” (New Mexico Tech Research Foundation, priority 2015, dated 2017).
Values after ≈ are worked out from the molar mass of the structure shown. Where two headings read alike, the source gives them in different places.

How the values were obtained:
WI38 cells = test: Toxicity (IC50) on WI38 cells; format: cell-based; details: Homo sapiens, WI-38; normal lung fibroblast WI38 cells
Protocol: The toxicities of the compounds of the invention were determined for human cancerous cervical epithelium HeLa and normal lung fibroblast WI38 cells. The toxicities of EPIs INF-55 and INF-55Cl were quantified as controls. […] TABLE 2 compares the toxicity of compounds 7-11 on HeLa cells and normal WI38 cells.

[1] = MIC against MRSA isolates; format: cell-based, S. aureus; details: Staphylococcus aureus
Procedure, shortened: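 Broth microdilution in TSB, ~5×10^5 CFU/mL, two-fold dilutions from 100 μM, overnight at 37 °C shaking 100 rpm.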

P. aeruginosa = test: MIC against P. aeruginosa; format: cell-based; details: Pseudomonas aeruginosa, read-out: MIC
From the text: Only compound 1 was able to decrease the CFU/mL when used in conjunction with white light to treat P. aeruginosa.

MRSA [2] = test: Resensitization to antibiotics (log reduction, TABLE 29); format: cell-based, S. aureus; details: compound 1 μM; Oxacillin (100 μg/mL)
Protocol: In a 96-well microtiter plate, two-fold dilutions were made of each drug (starting with 100 μM) in 100 μL of a cell suspension in TSB. The resulting samples were incubated overnight at 37° C. on a rotary shaking incubator at 100 rpm. The samples were then visually inspected for turbidity. A 20% well volume of MTT reagent (5 mg/mL) was subsequently added, and the samples were incubated for about 20 minutes.

A. baumannii = test: as above; format: cell-based; details: compound 5 μM; PME (0.2 μg/mL)
[3] = system: MRSA isolates (S. aureus ATCC 33591, BAA-44, BAA-1707, BAA-1717, BAA-1720, BAA-1747, BAA-1754, BAA-1761, BAA-1763, BAA-1764, BAA-1766); test: Combination effects of compounds 7-11 and antibiotics on MRSA isolates (turbidity); format: cell-based
From the text: Inhibition resulting from co-treatment of a broth suspension with a compound of the invention and an antibiotic was compared to broth suspensions subjected to each individual treatment. A visual observation of inhibition with the unaided eye upon co-treatment of the broth suspensions, based on turbidity, was considered synergistic.
Exceptions to reading complete inhibition of growth included Gram-positive cocci. For Gram-positive cocci, trailing growth was observed. For these species, the MICs were read at the first spot where trailing was observed, and tiny buttons of growth were ignored. […]
Two-fold dilutions of the antibiotics were prepared in a liquid growth medium dispensed in test tubes. […] The antibiotic-containing tubes were inoculated with a standard bacterial suspension of 5×10^5 CFU/mL. Following an overnight incubation (16-20 hrs) at 35±2° C. under ambient air, the tubes were examined for visible bacterial growth based on turbidity. The lowest concentration of antibiotic that prevented growth was determined to be the MIC. An incubation time of 24 hrs was used to determine the MICs of oxacillin and vancomycin.

S. aureus (ATCC 29213) = test: MIC against drug sensitive S. aureus; format: cell-based; details: Staphylococcus aureus, ATCC29213; ATCC 29213; read-out: S. aureus MIC
MRSA [4] = test: Resensitization to antibiotics (log reduction, TABLE 29); format: cell-based, S. aureus; details: compound 1 μM; Norfloxacin (15 μg/mL)
VRE = test: as above; format: cell-based, Enterococcus faecalis; details: compound 2 μM

Clc1ccc(Oc2c(-c3ccc(Cl)cc3)[nH]c3ccccc23)cc1 [Compound 10]
IC50 (WI38 cells): 54.8 µM
MIC ([1]; MRSA (ATCC BAA-44), TABLE 21, read-out: MRSA MIC): 16 µM (≈ 5.67 µg/mL)
MIC ([1]; MRSA isolate ATCC 33591, read-out: MIC): 12.5 µM (≈ 4.43 µg/mL)
MIC ([1]; MRSA isolate ATCC BAA-44, read-out: MIC): 8 µM (≈ 2.83 µg/mL)
MIC ([1]; MRSA isolate ATCC BAA-1707, read-out: MIC): 12.5 µM (≈ 4.43 µg/mL)
MIC ([1]; MRSA isolate ATCC BAA-1717, read-out: MIC): 6.3 µM (≈ 2.23 µg/mL)
MIC ([1]; MRSA isolate ATCC BAA-1720, read-out: MIC): 6.3 µM (≈ 2.23 µg/mL)
MIC ([1]; MRSA isolate ATCC BAA-1747, read-out: MIC): 12.5 to 25 µM (≈ 4.43 to 8.86 µg/mL)
MIC ([1]; MRSA isolate ATCC BAA-1754, read-out: MIC): 50 µM (≈ 17.7 µg/mL)
MIC ([1]; MRSA isolate ATCC BAA-1761, read-out: MIC): > 100 µM
MIC ([1]; MRSA isolate ATCC BAA-1763, read-out: MIC): 50 to 100 µM (≈ 17.7 to 35.4 µg/mL)
MIC ([1]; MRSA isolate ATCC BAA-1764, read-out: MIC): > 100 µM
MIC ([1]; MRSA isolate ATCC BAA-1766, read-out: MIC): 25 to 50 µM (≈ 8.86 to 17.7 µg/mL)
MIC (P. aeruginosa): > 100 µM
Log Reduction (MRSA [2]): 4-5
Log Reduction (A. baumannii): 8
combination effect with Gentamycin ([3]; MRSA ATCC 33591): No Synergy
combination effect with Norfloxacin ([3]; MRSA ATCC 33591): No Synergy
combination effect with Oxacillin ([3]; MRSA ATCC 33591): No Synergy
combination effect with Tetracycline ([3]; MRSA ATCC 33591): No Synergy
combination effect with Vancomycin ([3]; MRSA ATCC 33591): Susceptible
combination effect with Norfloxacin ([3]; MRSA ATCC BAA-44): No Synergy
combination effect with Oxacillin ([3]; MRSA ATCC BAA-44): No Synergy
combination effect with Tetracycline ([3]; MRSA ATCC BAA-44): Susceptible
combination effect with Vancomycin ([3]; MRSA ATCC BAA-44): Susceptible
combination effect with Gentamycin ([3]; MRSA ATCC BAA-1707): Susceptible
combination effect with Norfloxacin ([3]; MRSA ATCC BAA-1707): Susceptible
combination effect with Oxacillin ([3]; MRSA ATCC BAA-1707): Susceptible
combination effect with Tetracycline ([3]; MRSA ATCC BAA-1707): Synergy
combination effect with Vancomycin ([3]; MRSA ATCC BAA-1707): Susceptible
combination effect with Gentamycin ([3]; MRSA ATCC BAA-1717): Susceptible
combination effect with Norfloxacin ([3]; MRSA ATCC BAA-1717): Susceptible
combination effect with Oxacillin ([3]; MRSA ATCC BAA-1717): Synergy
combination effect with Tetracycline ([3]; MRSA ATCC BAA-1717): Susceptible
combination effect with Vancomycin ([3]; MRSA ATCC BAA-1717): Susceptible
combination effect with Gentamycin ([3]; MRSA ATCC BAA-1720): Susceptible
combination effect with Norfloxacin ([3]; MRSA ATCC BAA-1720): No Synergy
combination effect with Oxacillin ([3]; MRSA ATCC BAA-1720): No Synergy
combination effect with Tetracycline ([3]; MRSA ATCC BAA-1720): Susceptible
combination effect with Vancomycin ([3]; MRSA ATCC BAA-1720): Susceptible
combination effect with Gentamycin ([3]; MRSA ATCC BAA-1747): Susceptible
combination effect with Norfloxacin ([3]; MRSA ATCC BAA-1747): Susceptible
combination effect with Oxacillin ([3]; MRSA ATCC BAA-1747): Susceptible
combination effect with Tetracycline ([3]; MRSA ATCC BAA-1747): Susceptible
combination effect with Vancomycin ([3]; MRSA ATCC BAA-1747): Susceptible
combination effect with Gentamycin ([3]; MRSA ATCC BAA-1754): Susceptible
combination effect with Norfloxacin ([3]; MRSA ATCC BAA-1754): Susceptible
combination effect with Oxacillin ([3]; MRSA ATCC BAA-1754): No Synergy
combination effect with Tetracycline ([3]; MRSA ATCC BAA-1754): Susceptible
combination effect with Vancomycin ([3]; MRSA ATCC BAA-1754): Susceptible
combination effect with Gentamycin ([3]; MRSA ATCC BAA-1761): Susceptible
combination effect with Norfloxacin ([3]; MRSA ATCC BAA-1761): No Synergy
combination effect with Oxacillin ([3]; MRSA ATCC BAA-1761): Susceptible
combination effect with Tetracycline ([3]; MRSA ATCC BAA-1761): Susceptible
combination effect with Vancomycin ([3]; MRSA ATCC BAA-1761): Susceptible
combination effect with Gentamycin ([3]; MRSA ATCC BAA-1763): Susceptible
combination effect with Norfloxacin ([3]; MRSA ATCC BAA-1763): No Synergy
combination effect with Oxacillin ([3]; MRSA ATCC BAA-1763): No Synergy
combination effect with Tetracycline ([3]; MRSA ATCC BAA-1763): Susceptible
combination effect with Vancomycin ([3]; MRSA ATCC BAA-1763): Susceptible
combination effect with Gentamycin ([3]; MRSA ATCC BAA-1764): Susceptible
combination effect with Norfloxacin ([3]; MRSA ATCC BAA-1764): Susceptible
combination effect with Oxacillin ([3]; MRSA ATCC BAA-1764): No Synergy
combination effect with Tetracycline ([3]; MRSA ATCC BAA-1764): Susceptible
combination effect with Vancomycin ([3]; MRSA ATCC BAA-1764): Susceptible
combination effect with Gentamycin ([3]; MRSA ATCC BAA-1766): Susceptible
combination effect with Norfloxacin ([3]; MRSA ATCC BAA-1766): Susceptible
combination effect with Oxacillin ([3]; MRSA ATCC BAA-1766): No Synergy
combination effect with Tetracycline ([3]; MRSA ATCC BAA-1766): Susceptible
combination effect with Vancomycin ([3]; MRSA ATCC BAA-1766): Susceptible
MIC (S. aureus (ATCC 29213)): 32 to 64 µM (≈ 11.3 to 22.7 µg/mL)
Log Reduction (MRSA [4]): 5-6
Log Reduction (VRE; Dicloxacillin (10 μg/mL)): 5
Log Reduction (VRE; Norfloxacin (5 μg/mL)): 5-6
